Experimental findings from publication PMC12530842, “Potent, Selective, and Drug‐Like G Protein‐Coupled Receptor Kinase 5 and 6 Inhibitors: Design, Synthesis, and X‐Ray Structural Studies” (Chemmedchem, 2025) are described below.

Assay type in all cases: biochemical
The target of one assay is T1, GRK2 (Homo sapiens, UniProt P25098).
T1 construct: made in house
T1 sequence (P25098 1-689): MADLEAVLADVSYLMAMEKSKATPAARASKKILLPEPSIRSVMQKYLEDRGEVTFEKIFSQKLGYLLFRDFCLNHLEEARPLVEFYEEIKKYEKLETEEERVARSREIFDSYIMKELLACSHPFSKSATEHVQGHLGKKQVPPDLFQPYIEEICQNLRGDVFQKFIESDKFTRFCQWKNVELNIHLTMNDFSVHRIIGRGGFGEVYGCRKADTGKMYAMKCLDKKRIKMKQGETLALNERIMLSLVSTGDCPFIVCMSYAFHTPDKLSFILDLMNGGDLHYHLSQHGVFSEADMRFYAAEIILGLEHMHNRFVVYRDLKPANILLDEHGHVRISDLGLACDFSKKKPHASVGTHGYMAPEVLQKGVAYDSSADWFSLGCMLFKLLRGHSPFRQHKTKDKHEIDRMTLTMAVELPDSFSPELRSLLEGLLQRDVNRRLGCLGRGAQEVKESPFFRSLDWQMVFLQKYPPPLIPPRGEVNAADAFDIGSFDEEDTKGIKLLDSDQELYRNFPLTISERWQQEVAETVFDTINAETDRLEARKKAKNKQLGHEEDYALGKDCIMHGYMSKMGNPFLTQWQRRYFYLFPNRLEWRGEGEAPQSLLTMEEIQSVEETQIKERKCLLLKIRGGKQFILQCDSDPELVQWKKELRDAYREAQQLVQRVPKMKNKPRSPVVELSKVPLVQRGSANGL
Description: GRK2 kinase inhibition assay, phosphorylation of tubulin ([γ-32P]-ATP). To be noted: for IC50: phosphorylation of the soluble substrate tubulin, ± standard deviation from 3 to 4 independent experiments. As for the experimental part:
(§1) The inhibitory potency of synthetic compounds containing the N‐heterocyclic amide functionalities was evaluated against human GRK2, GRK5 and GRK6 using our in vitro assays‐, as reported previously.^[ [35], [37] ^] […] We then investigated the effect of (R)‐ and (S)‐Boc pyrrolidine carboxamide derivatives. […] These improvements of GRK5 IC50 values over their Boc‐derivatives (6c and 6d) indicated the bulky Boc group may not be able to fit as well in the catalytic site of these GRKs. On the other hand, sterically less demanding acetamide derivatives 6e and 6f were well accommodated consistent with their very good activity against GRK5, GRK6, and GRK2, but only with marginal selectivity against GRK2. […] We also examined the effect of 3(S)‐ and 3(R)‐Boc‐pyrrolidine derivatives.
(§2) Protein expression and purification.
(§3) Human GR K5 (residues 1- 590) w ild- type and D 311N mutant w ere expressed in E. co li Rosetta (D E3) and purified v ia nickel-nitrilotriacetic acid affinity chromatography, followed by tandem columns consisting of a HiTrap Q HP anion exchange chromatography column and a HiTrap SP HP cation exchange chromatography column, and finished by Superdex 200 Increase size -exclusion chromatography, as described previously. Human GRK6 (with T10A and mutations that eliminate palmitoylation sites) was expressed in Sf9 insect cells [ 2] and was purified w ith the same protocol for GR K5 [1]. Human GRK2 w as purified as described previously.
(§4) Kinase inhibition Assays.
(§5) Inhibit ion assays were conducted in a reaction mixture containing 20 mM H EPES pH 7. 0, 2 mM MgC l2, and 0.025% n- dodecyl-β-D-maltoside. Prior to reaction initiation, GR K5 or GR K6 at 50 nM was mixed w ith porcine brain tubulin ( PurSolutions) at a concentration of 500 nM. The assay w as started w ith a 30- second incubation of inhibitors, followed by the add it ion of 5 μ M ATP supplemented w ith radioactive [γ-32P]-AT P a t 60 C i/m mol (PerkinElm er Life Sciences). Re actions pro ceeded for 5 m inut es at ro o m te mpera ture a nd were terminated by adding 4X SDS loading buffer. T he reaction mixtures were then s eparated via SDS - PAG E, dried, and exposed using a phosphor imaging screen. Quantification was performed using a Personal Molecular Imager and Quantity One 1- D Analysis Software. Analogous inhibition assays were conducted on p urified GR K2 wit h a t ub ulin conce ntrat ion of 1 μ M. Data ana lysis was perf orme d usin g Graph Pa d Pr ism, and IC50 values wer e calculated based on three- parameter dose- dependent curves (with a Hill coefficient fixed at 1) plotting phosphate transfer against inhibitor concentration. At least three replicates were conducted to determine the mean and standard deviation of IC50 values as published previously . […]
(§6) (6) The final models w ere validated with MolProbity prior to depos ition along with structure factors in the Protein Data Bank. Atomic figures were created with Py mol (7). Cr ystallographic statistics are reported in Supplemental Table 1. Coordinates for inh ib itor 6t (GRL-098- 22) w ere deposited in the Protein Data Bank, with accession code 9BR K.
(§7) 1. Y. Chen, A. Sonawane, R. Manda, R. K. G adi, J. J. G. Tesmer, A. K. Ghosh. Development of a new class of potent and highly select ive G protein- coupled r eceptor kinase 5 inhibitors and structural insight from crystal structures of inhibitor complexes. Eur. J. Med. Chem. 2024, 264, 115931.
(§8) 2. D. T. Lodowski, V. M. T esmer, J. L. Benovic, J. J. Tesmer. The structure of G protein- coupled receptor kinase (GRK)-6 defines a second lineage of GRKs. J. Bio l. C he m. 2006, 281,16785- 16793.

The target of the next assay is T2, GRK6 (Homo sapiens, UniProt P43250, C561S/C562S/C565S/T10A).
T2 construct: His tag (inferred: purified by the GRK5 protocol, which starts with nickel-NTA); made in house; host or cells: Sf9 insect cells
T2 sequence (P43250 whole entry T10A/C561S/C562S/C565S): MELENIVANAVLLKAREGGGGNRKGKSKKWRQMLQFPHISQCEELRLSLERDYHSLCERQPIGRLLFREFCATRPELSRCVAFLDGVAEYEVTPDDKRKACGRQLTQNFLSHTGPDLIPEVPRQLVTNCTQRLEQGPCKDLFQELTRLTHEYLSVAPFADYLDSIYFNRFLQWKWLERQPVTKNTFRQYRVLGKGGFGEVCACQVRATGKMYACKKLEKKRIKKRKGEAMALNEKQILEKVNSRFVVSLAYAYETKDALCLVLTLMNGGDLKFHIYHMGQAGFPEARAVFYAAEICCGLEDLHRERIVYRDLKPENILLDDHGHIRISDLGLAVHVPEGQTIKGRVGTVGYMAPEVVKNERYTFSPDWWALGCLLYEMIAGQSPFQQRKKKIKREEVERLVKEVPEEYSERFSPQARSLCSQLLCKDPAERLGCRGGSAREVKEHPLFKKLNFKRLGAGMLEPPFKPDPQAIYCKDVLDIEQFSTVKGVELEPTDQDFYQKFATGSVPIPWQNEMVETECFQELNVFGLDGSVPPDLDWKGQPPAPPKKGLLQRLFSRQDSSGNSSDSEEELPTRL
The assay can be described thus: GRK6 kinase inhibition assay, phosphorylation of tubulin ([γ-32P]-ATP). Particulars: for Selectivity GRK5/GRK6: fold selectivity for GRK6 over GRK5; for IC50: phosphorylation of the soluble substrate tubulin, ± standard deviation from 3 to 4 independent experiments. As for the experimental part: as §1, §2, §3, §4, §5, §6, §7, §8

The target in another assay is T3, GRK5 (Homo sapiens, UniProt P34947).
T3 construct: Human GR K5 (residues 1- 590) w ild- type and D 311N mutant w ere expressed in E. co li Rosetta; His tag (inferred from nickel-NTA purification); made in house; host or cells: E. coli Rosetta (DE3)
T3 sequence (P34947 whole entry, the tested form may be a part): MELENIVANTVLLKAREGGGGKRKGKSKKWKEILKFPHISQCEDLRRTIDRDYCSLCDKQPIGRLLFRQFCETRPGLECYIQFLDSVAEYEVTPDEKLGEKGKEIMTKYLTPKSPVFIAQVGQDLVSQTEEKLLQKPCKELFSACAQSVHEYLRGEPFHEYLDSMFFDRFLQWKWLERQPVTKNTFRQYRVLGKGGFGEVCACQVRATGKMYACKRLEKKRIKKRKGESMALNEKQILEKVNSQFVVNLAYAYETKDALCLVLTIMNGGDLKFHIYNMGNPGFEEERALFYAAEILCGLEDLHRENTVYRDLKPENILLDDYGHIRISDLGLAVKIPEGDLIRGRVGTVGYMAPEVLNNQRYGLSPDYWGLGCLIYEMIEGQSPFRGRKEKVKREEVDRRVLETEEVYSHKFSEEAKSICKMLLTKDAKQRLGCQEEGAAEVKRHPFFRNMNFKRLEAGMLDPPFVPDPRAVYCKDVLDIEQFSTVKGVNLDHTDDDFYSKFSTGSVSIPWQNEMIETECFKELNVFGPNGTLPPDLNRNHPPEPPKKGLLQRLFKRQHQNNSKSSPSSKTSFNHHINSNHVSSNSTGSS
The assay can be described thus: GRK5 kinase inhibition assay, phosphorylation of tubulin ([γ-32P]-ATP). Particulars: for Selectivity GRK2/GRK5: fold selectivity for GRK5 over GRK2; for IC50: phosphorylation of the soluble substrate tubulin, ± standard deviation from 3 to 4 independent experiments. As for the experimental part: as §1, §2, §3, §4, §5, §6, §7, §8

“Also recorded” adds a separate entry of the source.

For `Cc1[nH]c(/C=C2\C(=O)Nc3ccc(C(=O)N[C@H](C)c4ccc(F)cc4)cc32)c(C)c1NC(=O)[C@@H]1CCC(=O)N1` [6a, (Z)‐3‐((3,5‐Dimethyl‐4‐((S)‐5‐Oxopyrrolidine‐2‐Carboxamido)‐1H‐Pyrrol‐2‐Yl)Methylene)‐N‐((R)‐1‐(4‐Fluorophenyl)Ethyl)‐2‐Oxoindoline‐5‐Carboxamide], the IC50 (as a rule, the concentration that inhibits the measured activity by half) against GRK2 turned out to be 0.71 ± 0.4 µM; against GRK6, 0.02 ± 0.01 µM; on GRK5, 0.027 ± 0.006 µM. The “Selectivity GRK5/GRK6” value at GRK6 worked out at 1 fold. Besides, at GRK5, the “Selectivity GRK2/GRK5” value came out at 26 fold.

`Cc1[nH]c(/C=C2\C(=O)Nc3ccc(C(=O)N[C@H](C)c4ccc(F)cc4)cc32)c(C)c1NC(=O)[C@H]1CCC(=O)N1` [6b, (Z)‐3‐((3,5‐Dimethyl‐4‐((R)‐5‐Oxopyrrolidine‐2‐Carboxamido)‐1H‐Pyrrol‐2‐Yl)Methylene)‐N‐((R)‐1‐(4‐Fluorophenyl)Ethyl)‐2‐Oxoindoline‐5‐Carboxamide] showed an IC50 against GRK2 of 2.1 ± 0.2 µM. Besides, on GRK6, the “Selectivity GRK5/GRK6” value stood at 30 fold and the IC50 came out at 0.028 ± 0.002 µM. Further, on GRK5, the “Selectivity GRK2/GRK5” value is on record as 3 fold and the IC50 was determined as 0.8 ± 0.4 µM. Also, at GRK5 (in comparison with compound 6a), the “fold reduction of GRK5 activity” value worked out at 30 fold.

Take `Cc1[nH]c(/C=C2\C(=O)Nc3ccc(C(=O)N[C@H](C)c4ccc(F)cc4)cc32)c(C)c1NC(=O)[C@H]1CCCN1C(=O)OC(C)(C)C` [6c, Tert‐Butyl(R)‐2‐((5‐(((Z)‐5‐(((R)‐1‐(4‐Fluorophenyl)Ethyl)Carbamoyl)‐2‐Oxoindolin‐3‐Ylidene)Methyl)‐2,4‐Dimethyl‐1H‐Pyrrol‐3‐Yl)Carbamoyl)Pyrrolidine‐1‐Carboxylate]: the IC50 against GRK2 is 160 ± 100 µM. Further, at GRK6, the “Selectivity GRK5/GRK6” value turned out to be 35 fold and inhibition was half-maximal at 1.4 ± 0.5 µM (IC50). In addition, on GRK5, the “Selectivity GRK2/GRK5” value is >3 fold and the midpoint of inhibition, the IC50, lay at 50 ± 30 µM.

In the case of `Cc1[nH]c(/C=C2\C(=O)Nc3ccc(C(=O)N[C@H](C)c4ccc(F)cc4)cc32)c(C)c1NC(=O)[C@@H]1CCCN1C(=O)OC(C)(C)C` [6d, Tert‐Butyl(S)‐2‐((5‐(((Z)‐5‐(((R)‐1‐(4‐Fluorophenyl)Ethyl)Carbamoyl)‐2‐Oxoindolin‐3‐Ylidene)Methyl)‐2,4‐Dimethyl‐1H‐Pyrrol‐3‐Yl)Carbamoyl)Pyrrolidine‐1‐Carboxylate], the IC50 on GRK2 is > 1000 µM; at GRK6, 9.9 ± 2 µM; against GRK5, 0.44 ± 0.16 µM. In addition, at GRK5, the “Selectivity GRK2/GRK5” value is listed as >2000 fold. For the same molecule, the “fold enhanced GRK5 inhibitory activity” value at GRK5 (over the (R)-Boc derivative 6c) was “over 100 fold”.

On to `CC(=O)N1CCC[C@@H]1C(=O)Nc1c(C)[nH]c(/C=C2\C(=O)Nc3ccc(C(=O)N[C@H](C)c4ccc(F)cc4)cc32)c1C` [6e, (Z)‐3‐((4‐((R)‐1‐Acetylpyrrolidine‐2‐Carboxamido)‐3,5‐Dimethyl‐1H‐Pyrrol‐2‐Yl)Methylene)‐N‐((R)‐1‐(4‐Fluorophenyl)Ethyl)‐2‐Oxoindoline‐5‐Carboxamide], for which, on GRK2, half-maximal inhibition (IC50) was put at 0.32 ± 0.09 µM. Besides, on GRK6, the “Selectivity GRK5/GRK6” value is 1 fold and inhibition was half-maximal at 0.06 ± 0.02 µM (IC50). At GRK5, the “Selectivity GRK2/GRK5” value stood at 8 fold and the IC50 worked out at 0.04 ± 0.006 µM.

With `CC(=O)N1CCCC1C(=O)Nc1c(C)[nH]c(C=C2C(=O)Nc3ccc(C(=O)NC(C)c4ccc(F)cc4)cc32)c1C` [6f, ((Z)‐3‐((4‐((S)‐1‐Acetylpyrrolidine‐2‐Carboxamido)‐3,5‐Dimethyl‐1H‐Pyrrol‐2‐Yl)Methylene)‐N‐((R)‐1‐(4‐Fluorophenyl)Ethyl)‐2‐Oxoindoline‐5‐Carboxamide], the IC50 against GRK2 turned out to be 0.9 ± 0.3 µM. Moreover, on GRK6, the “Selectivity GRK5/GRK6” value came to 2 fold and the IC50 worked out at 0.031 ± 0.02 µM. At GRK5, the “Selectivity GRK2/GRK5” value came out at 15 fold and the IC50 is 0.06 ± 0.02 µM.

For the molecule `Cc1[nH]c(/C=C2\C(=O)Nc3ccc(C(=O)N[C@H](C)c4ccc(F)cc4)cc32)c(C)c1NC(=O)[C@H]1CCCN1` [6g, (Z)‐3‐((3,5‐Dimethyl‐4‐((R)‐Pyrrolidine‐2‐Carboxamido)‐1H‐Pyrrol‐2‐yl)Methylene)‐N‐((R)‐1‐(4‐Fluorophenyl)Ethyl)‐2‐Oxoindoline‐5‐Carboxamide], the IC50 was 0.1 ± 0.01 µM against GRK2, 0.03 ± 0.002 µM against GRK6 and 0.04 ± 0.02 µM against GRK5. The “Selectivity GRK5/GRK6” value on GRK6 is listed as 1 fold. The “Selectivity GRK2/GRK5” value at GRK5 stood at 3 fold.

With `Cc1[nH]c(/C=C2\C(=O)Nc3ccc(C(=O)N[C@H](C)c4ccc(F)cc4)cc32)c(C)c1NC(=O)[C@@H]1CCCN1` [6h, (Z)‐3‐((3,5‐Dimethyl‐4‐((S)‐pyrrolidine‐2‐carboxamido)‐1H‐pyrrol‐2‐yl)methylene)‐N‐((R)‐1‐(4‐fluorophenyl)ethyl)‐2‐oxoindoline‐5‐carboxamide], half-maximal inhibition at GRK2 (IC50) was put at 0.08 ± 0.01 µM. Besides, at GRK6, the “Selectivity GRK5/GRK6” value came to 3 fold and the IC50 came out at 0.034 ± 0.01 µM. Also, at GRK5, the “Selectivity GRK2/GRK5” value is listed as 1 fold and the IC50 was found to be 0.09 ± 0.04 µM.

With `Cc1[nH]c(C=C2C(=O)Nc3ccc(C(=O)NC(C)c4ccc(F)cc4)cc32)c(C)c1NC(=O)C1C=CCN1C(=O)OC(C)(C)C` [6i, Tert‐Butyl(S)‐2‐((5‐(((Z)‐5‐(((R)‐1‐(4‐Fluorophenyl)Ethyl)Carbamoyl)‐2‐Oxoindolin‐3‐yl‐ Idene)Methyl)‐2,4‐Dimethyl‐1H‐Pyrrol‐3‐Yl)Carbamoyl)‐2,5‐Dihydro‐1H‐Pyrrole‐1‐Carboxylate], on GRK2, the “activity against GRK2 (in words)” value is recorded as “little to no activity” and it took 120 ± 50 µM to reach half-maximal inhibition (IC50). In addition, on GRK6, the “GRK6 IC50 (in words)” value is on record as “sub‐micromolar; also recorded: low micromolar range”, the “Selectivity GRK5/GRK6” value is on record as 2 fold and half-maximal inhibition (IC50) was put at 0.5 ± 0.2 µM. Moreover, at GRK5, the “GRK5 IC50 (in words)” value is “sub‐micromolar; also recorded: low micromolar range”; the “Selectivity GRK2/GRK5” value worked out at 130 fold; the midpoint of inhibition, the IC50, lay at 0.92 ± 0.5 µM.
